These results are taken from patent US20260354376A1, “AGENT FOR IMPROVING ENVIRONMENTAL STRESS TOLERANCE” (OAT Agrio Co., Ltd., priority 2023, published 2026).

Holding throughout (type): in vivo
The test system of assay [1] is paddy rice (Koshihikari). As to the kind of experiment: Test Example 3: growth-promoting effect in rice hydroponics (regenerated root length, 25 °C). The following applies: 25° C. (Growth Promotion), 6 days, untreated = 100. Here is the method:
In Example 3, a liquid culture medium prepared by diluting OAT House Fertilizer (registered trademark) Formulation A, manufactured by OAT Agrio Co., Ltd., was placed in an erlenmeyer flask. The capsanthin concentration in the paprika pigment (manufactured by San-Ei Gen F. F. I., Inc.) was measured by high performance liquid chromatography at General Incorporated Association Japan Food Research Laboratories. As a result, about 221 mg of capsanthin was contained in 100 g of the paprika pigment. The measurement conditions were as follows. • Model: LC-20 (manufactured by Shimadzu Corporation) • Detector: UV-VIS absorption spectrometer SPD-20AV (manufactured by Shimadzu Corporation) • Column: Shim-pack CLC-SIL (M) (size: 4.6 mm×150 mm) (manufactured by Shimadzu Corporation) • Column temperature: 30 °C. • Mobile phase: mixture of hexane and acetone (81:19) • Flow rate: 1.1 mL/min • Measurement wavelength: 474 nm • Injection volume: 30 μL
Next, paddy rice (Koshihikari) was grown to seedlings in culture soil, and then the roots of the rice were cut to a predetermined length. Five of the cut seedlings were inserted into each erlenmeyer flask containing the above-described liquid culture medium. Then, after cultivation at 25 °C for 6 days, the length of the roots of the rice was measured, and the length of regenerated roots was calculated.
In Comparative Example 5, the same test as in Example 3 was repeated, except for using the liquid culture medium not containing the capsanthin or paprika pigment.
In Reference Example 3, the same test as in Example 3 was repeated, except for using the liquid culture medium containing a commercially available material for improving high-temperature tolerance (material A) at the dilution factor shown in Table 3.
The dilution factor is shown for Reference Example 3, because the content of the active ingredient in the commercially available product is unknown.
The results of Example 3 and Reference Example 3 are expressed as the ratio (%) with respect to the result of Comparative Example 5 (untreated group) taken as 100.

Assay [2] concerns paddy rice (Koshihikari). Put plainly: Test Example 4: high-temperature stress tolerance improvement in rice hydroponics (regenerated root length, 35 °C). The note with it: for Ratio to Untreated Group (length of regenerated roots): 35 °C (High-Temperature Stress), 6 days, untreated = 100. Here is the method:
In Example 4, a liquid culture medium prepared by diluting OAT House Fertilizer (registered trademark) Formulation A, manufactured by OAT Agrio Co., Ltd., was placed in an erlenmeyer flask. Then, the above-described capsanthin or paprika pigment was added to the liquid culture medium to give the concentrations shown in Table 4. Next, paddy rice (Koshihikari) was grown to seedlings in culture soil, and then the roots were cut to a predetermined length. Five of the seedlings were inserted into each erlenmeyer flask. Then, after cultivation at 35 °C for 6 days, the length of the roots of the rice was measured, and the length of regenerated roots was calculated.
In Comparative Example 6, the same test as in Example 4 was repeated, except for using the liquid culture medium not containing the capsanthin or paprika pigment.
The results of Example 4 are expressed as the ratio (%) with respect to the result of Comparative Example 6 (untreated group) taken as 100.

Assay [3] relates to paddy rice (Koshihikari). As to the kind of experiment: Test Example 5: salt stress tolerance improvement in rice hydroponics (regenerated root length, sodium chloride). The following applies: sodium chloride 120 mM, 6 days, untreated = 100. How it is done: In Example 5, a liquid culture medium prepared by diluting OAT House Fertilizer (registered trademark) Formulation A, manufactured by OAT Agrio Co., Ltd., was placed in an erlenmeyer flask. Then, sodium chloride was added to the liquid culture medium to give a final concentration of 120 mM, and the capsanthin or paprika pigment was added to the liquid culture medium to give the concentrations shown in […]. Next, paddy rice (Koshihikari) was grown to seedlings in culture soil, and then the roots were cut to a predetermined length. Five of the seedlings were inserted into each erlenmeyer flask. Then, after cultivation for 6 days, the length of the roots of the rice was measured, and the length of regenerated roots was calculated.
In Comparative Example 7, the same test as in Example 5 was repeated, except for using the liquid culture medium not containing the capsanthin or paprika pigment.
In Reference Example 4, the same test as in Example 5 was repeated, except for using the liquid culture medium containing a commercially available material for improving salt tolerance (material B) at the dilution factor shown in Table 5, instead of the capsanthin and paprika pigment.
The results of Example 5 and Reference Example 4 are expressed as the ratio (%) with respect to the result of Comparative Example 7 (untreated group) taken as 100.

In assay [4] the test system is wheat (variety: Chikugoizumi). Put plainly: Test Example 11: dryness stress tolerance improvement on wheat (weight of grains per plant). The note with it: dryness stress (irrigation about half), 0.1%. The text has this:
In Example 11, wheat (variety: Chikugoizumi) was sown in 1/5000a Wagner pots and cultivated at a density of 2 plants/pot. Next, all pots were irrigated with the same amount of tap water until the ear-emergence stage of wheat, and irrigation with a chemical solution was started after the ear emergence. In this test, dryness stress was induced by reducing the amount of irrigation to about half of the normal amount. After yellow ripening of the wheat was confirmed, the aboveground portions of the wheat were harvested, and the weight of grains per plant was investigated. A 30 ppm aqueous solution of the paprika pigment was used as the chemical solution.
In Comparative Example 13, the same test as in the test of Example 11 using the paprika pigment was repeated, except for using water for irrigation after the ear emergence.
In Reference Example 10, the same test as in the test of Example 11 using the paprika pigment was repeated, except for using a commercially available material for improving salt tolerance (material B) at the dilution factor shown in Table 11. […]
The results of Example 11, and Reference Examples 10 and 11 are expressed as the ratio (%) with respect to the result of Comparative Example 13 (untreated group) taken as 100.

`CC1=C(/C=C/C(C)=C/C=C/C(C)=C/C=C/C=C(C)/C=C/C=C(C)/C=C/C(=O)[C@]2(C)C[C@@H](O)CC2(C)C)C(C)(C)C[C@H](O)C1` [Capsanthin, capsanthin]: the “Ratio to Untreated Group (length of regenerated roots)” value (“Ratio … (length of regenerated roots)” below) in the assay with paddy rice (Koshihikari) [1] (capsanthin 0.00000663 ppm) was 104%; with paddy rice (Koshihikari) [1] (capsanthin 0.0000663 ppm), 102%; in the assay on paddy rice (Koshihikari) [1] (capsanthin 0.000221 ppm), 102%; in the assay on paddy rice (Koshihikari) [1] (capsanthin 0.00221 ppm), 108%; with paddy rice (Koshihikari) [2] (capsanthin 0.00000663 ppm), 115%; in the assay on paddy rice (Koshihikari) [2] (capsanthin 0.0000663 ppm), 132%. Further, the “Ratio … (length of regenerated roots)” value in the assay on paddy rice (Koshihikari) [2] (capsanthin 0.000221 ppm) came out at 113%; with paddy rice (Koshihikari) [2] (capsanthin 0.00221 ppm), 122%; in the assay with paddy rice (Koshihikari) [2] (capsanthin 0.00663 ppm) it was 114%; in the assay with paddy rice (Koshihikari) [2] (capsanthin 0.0221 ppm) it was 109%; in the assay on paddy rice (Koshihikari) [2] (capsanthin 0.0663 ppm) it was 140%; in the assay on paddy rice (Koshihikari) [3] (capsanthin 0.0000663 ppm), 104%. Also, the “Ratio … (length of regenerated roots)” value was found to be 103% in the assay on paddy rice (Koshihikari) [3] (capsanthin 0.000221 ppm); 107% with paddy rice (Koshihikari) [3] (capsanthin 0.00221 ppm); 114% in the assay with paddy rice (Koshihikari) [3] (capsanthin 0.00663 ppm); 111% with paddy rice (Koshihikari) [3] (capsanthin 0.0221 ppm); 126% in the assay with paddy rice (Koshihikari) [3] (capsanthin 0.0663 ppm). In the assay on paddy rice (Koshihikari) [2] (Tables 3 to 5 (25 °C, 35 °C, sodium chloride), same concentrations of capsanthin), the “effect compared with paprika pigment (in words)” value was “comparable effect to that of the paprika pigment”.

Consider `CC(=O)O` [Potassium Acetate, potassium acetate], for which the “Weight of Grains, Average” value in assay [4] (untreated 7.3) is 9.3 g DW/Plant. Also, in assay [4] (untreated = 100), the “Weight of Grains, Ratio to Untreated Group” value was found to be 126%.
